The record followed here is PMC8410836, “Rational design of hyperstable antibacterial peptides for food preservation” (NPJ Science of Food, 2021).

≈ marks a conversion by molar mass, not a printed value. Like-named read-outs stand apart in the source and are kept apart here. Where a SMILES comes first, the peptide text is derived from it. Bridges are numbered along the chain shown (N, C = ends).

In one data set the test system is B. cereus spores. In kind it is cell-based, Bacillus cereus. To be noted: spore suspension, resazurin; repeated at least twice. As for the experimental part:
B. cereus spores were used to test the effect of peptides on spore germination. Spores were prepared by inoculating 3 mL MH media with B. cereus cells and incubating at 30 °C at 180 rpm for 12 h. 2.5 mL of the culture was inoculated into a 250 mL MH media and incubated at 30 °C for 72 h. Furthermore, culture was temperature-treated at 80 °C for 30 min to eliminate the vegetative cells. Spore suspension was stored at 4 °C until further use. Two microliters of spore suspension was used to test the effect of HSEP3 and Nisin on spore germination using resazurin. All experiments were repeated at least twice.

Data set [1] relates to human red blood cells (hRBCs). To be noted: peptide 0 to 200 μg/mL, 4% hRBCs in PBS, 1 h, 37 °C, absorbance 414 nm, Triton X-100 = 100%; three biological replicates.
Method: The hemolytic activity of the peptide was evaluated using human red blood cells (hRBCs). Erythrocytes were separated from 1 mL of blood by centrifugation at 1500 rpm for 10 min. Collected hRBCs were washed three times with PBS, diluted to 4% (v/v) in PBS. Hundred microliters of the hRBCs having peptides ranging from 4 to 200 µg/mL as added into 96-well microtiter plate. The plates were incubated for 1 h at 37 °C without agitation and centrifuged at 1500 rpm for 5 min. Aliquots (100 μL) of the supernatant were transferred to 96-well plates and absorbance was measured at 414 nm. PBS and 1% Triton X-100 were used as control for 0% and 100% hemolysis, respectively. Percentage of hemolysis was calculated as (AT − AC)/(AX − AC) × 100; where AT is the experimental absorbance of treated supernatants, AC is the control absorbance of PBS-treated cell supernatant, and AX is the absorbance of 0.1% (v/v) Triton X-100 lysed cells. Data presented are averages and standard error from three biological replicate experiments.
Data set [2] relates to B. cereus. Here is the method: (§1) Antimicrobial assays against various bacterial cultures were done using the microdilution broth assay according to the Clinical and Laboratory Standards Institute (CLSI)[64] with some modifications. Mueller-Hinton broth was used to dilute the peptide stock and the bacterial inoculum. Inoculum was prepared from the mid-logarithmic phase culture. Each well of the microtiter plates received aliquots of 100 µL of the media containing different concentrations of peptide ranging from 0.3 to 300 µg/mL. The final concentration of bacteria in the wells was 5 × 10^5 Colony Forming Units (CFU) per mL. Ampicillin was used as positive control. For negative control, ultrapure water was used instead of peptides. Microtiter plates were incubated at 37 °C for 5–6 h with continuous shaking at 130 rpm (M. luteus cells were incubated for 7–8 h). The incubation time used for these assays was initially optimized using a 20-h incubation period. […] MIC assays were performed as three independent experiments in triplicates.
To determine the stability of HSEP3 at higher temperatures, 20 μL of HSEP3 (4 mg/mL) and 20 μL of Nisin in a 0.5 mL tube were autoclaved (for moist heat) at 121 °C for 20 min or heated at 95 °C for 30 min (for dry heat) and cooled to room temperature. Mixture was then used to test the antibacterial activity as previously described. Experiments were repeated in LB media to study the effect of complex media on antibacterial activity. All the experiments were repeated at least two times.

The target of data set [3] is T1, bovine trypsin (Bos taurus, UniProt P00760). Briefly: biochemical. The settings on record: SEM.
Method: (§3) The amidase activity of trypsin and its inhibition was assayed using the chromogenic substrate BAPNA at pH 8.2 in 0.05 M Tris-HCl containing 0.02 M CaCl2 at 37 °C. The assay reaction contained 50 µL of trypsin solution (40–50 μg of trypsin in 1 mM HCl), 50 µL of water, and 125 µL of the substrate. The reaction was carried out at 37 °C for 10 min and stopped by addition of 0.25 mL of 30% acetic acid. […] The trypsin solution was incubated with an aliquot of inhibitor for 10 min at 37 °C and reaction started by the addition of 125 µL substrate and incubated at 37 °C for 10 min. […] The effect of varying substrate concentration (BAPNA) on bovine trypsin in the presence of fixed concentrations of peptides was studied. The inhibition constants (Ki) were evaluated using the double reciprocal and Dixon plot of the data[65],[66]. Data presented are averages and standard error calculated from two biological replicate experiments.
In data set [4] the test system is Salmonella typhimurium ATCC9844. Here is the method:
(§2) Four Gram-positive bacteria: Listeria monocytogenes ATCC13932, Bacillus cereus ATCC11778, Staphylococcus aureus ATCC12900, and Micrococcus luteus ATCC4698 and three Gram-negative bacteria: Escherichia coli ATCC11775, Pectobacterium carotovorum MCC2112, and Salmonella typhimurium ATCC9844 were used in this study. These strains were stored at −80 °C in 25% (v/v) glycerol.
as §1

For data set [5], the system named is Listeria monocytogenes ATCC13932. Here is the method: as §2, §1
The test system of data set [6] is Escherichia coli ATCC11775. Here is the method:
as §2, §1

The subject of data set [7] is Staphylococcus aureus ATCC12900. As for the experimental part: as §2, §1
The subject of data set [8] is Bacillus cereus ATCC11778. Here is the method: as §2, §1
Data set [9] deals with Pectobacterium carotovorum MCC2112. Here is the method: as §2, §1
Data set [10] relates to Micrococcus luteus ATCC4698. As for the experimental part: as §2, §1
Data set [11] addresses T1, bovine trypsin. The settings on record: BAPNA substrate, pH 8.2, 0.05 M Tris-HCl, 0.02 M CaCl2, 37 °C, double reciprocal and Dixon plot, mean and standard error of two biological replicates.
Method: as §3
The test system of data set [12] is B. cereus. Briefly: Propidium iodide (PI) uptake assay. To be noted: peptides at 2X MIC, Fig. 4e; three biological replicates. In kind it is cell-based, Bacillus cereus. Here is the method: B. cereus and M. luteus were grown in MH broth to logarithmic phase of growth and then diluted to OD600 ~ 0.25. Serial dilutions of the antimicrobial peptides (final concentrations, 0–100 μg/mL) were added to the wells of a black-walled microplate. Hundred microliters of the bacterial suspension containing PI (final concentration, 10 μM) was added to the wells. The emitted fluorescence was measured at excitation and emission wavelengths of 585 and 620 nm, respectively, for 2 h using a multimode plate reader (Varioskan Flash, Thermo Scientific, USA). The percentage of membrane permeabilization was calculated as the percent of fluorescent intensity of peptide-treated samples with respect to fluorescence intensity of PI-loaded, peptide untreated samples. PI uptake assays were performed as three independent experiments in triplicates.

In a further data set the test system is ARPE-19 cells. To be noted: 16 h, WST-1, Fig. 10a ARPE-19. Here is the method: Cytotoxicity against adult retinal pigmented epithelial (ARPE-19, ATCC CRL2302) cells was measured using WST assay. ARPE-19 cells growing in log phase were seeded into 96-well cell-culture plates at 4 × 10^4 the cells were incubated at 37 °C for 24 h under 5% CO2. Peptide is added with final concentrations of 4–200 µg/mL in Dulbecco’s modified Eagle medium (DMEM/F12). Nutrient mixture media for the treatment group, whereas for the negative control group, media alone was added. The cells were incubated for 16 h at 37 °C under 5% CO2. Ten microliters of WST-1 reagent was added into each well. Plate was incubated at 37 °C for 2 h. Color intensity was measured at 450 nm. Cytotoxicity data presented are averages and standard error from three biological replicate experiments.
Background: Tetrazolium dyes change colour on reduction, which living cells bring about.

The mark [13] stands for this setting: microdilution broth, MH broth, 5 × 10^5 CFU/mL, 37 °C, 5–6 h, resazurin.
The mark [14] stands for this setting: microdilution broth (CLSI, modified), Mueller-Hinton broth, 5 × 10^5 CFU/mL, 37 °C, 7–8 h, resazurin colour change, three independent experiments in triplicates.

T1 sequence (P00760 24-246): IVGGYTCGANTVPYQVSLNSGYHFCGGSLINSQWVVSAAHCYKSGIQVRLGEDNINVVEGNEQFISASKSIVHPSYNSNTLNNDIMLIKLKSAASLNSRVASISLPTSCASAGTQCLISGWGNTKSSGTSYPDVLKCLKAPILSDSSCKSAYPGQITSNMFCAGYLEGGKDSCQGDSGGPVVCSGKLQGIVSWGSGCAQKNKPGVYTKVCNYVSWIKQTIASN

By Ki is commonly meant a measure of affinity in units of concentration, obtained from inhibition or displacement. A higher Ki goes with a looser hold on the target. For the molecule `CC[C@H](C)[C@H](NC(=O)[C@@H](NC(=O)[C@H](CO)NC(=O)[C@@H](N)CCCNC(=N)N)C(C)C)C(=O)N[C@@H](Cc1ccccc1)C(=O)NCC(=O)N[C@H]1CSSC[C@@H](C(=O)N[C@@H](Cc2ccccc2)C(=O)N[C@H](C(=O)NCC(=O)N[C@@H](Cc2ccccc2)C(=O)N[C@@H](CCCCN)C(=O)O)C(C)C)NC(=O)[C@H]([C@@H](C)CC)NC(=O)[C@@H]2CCCN2C(=O)[C@@H]2CCCN2C(=O)[C@H]([C@@H](C)CC)NC(=O)[C@H](CO)NC(=O)[C@H](CCCCN)NC(=O)[C@H]([C@@H](C)O)NC1=O` [HSEP3] (H-RSVIFGCTKSIPPICFVGFK-OH; disulfide 7-15), in the data set on B. cereus spores, the “Inhibition of B. cereus spore germination (MIC)” value is 12.5 µg/mL. The hemolytic activity in [1] is reported as less than 5%. In the data set on B. cereus [2] (autoclaved at 121 °C for 20 min, LB media), the “Effect of steam heat on antibacterial activity (in complex media), MIC” value is 50 µg/mL. For the same molecule, the “Effect of steam heat on antibacterial activity (in MH media), MIC” value with B. cereus [2] (autoclaved at 121 °C for 20 min, MH media) worked out at 12.5 µg/mL. The “Effect of dry heat on antibacterial activity, MIC” value with B. cereus [2] (heated at 95 °C for 30 min) came out at 12.5 µg/mL. The same molecule gave a Ki at bovine trypsin [3] of 200 nM. In addition, in data set [4] (setting [13]), the “MIC Salmonella typhimurium” value amounted to 85 µg/mL (≈ 38.7 µM). Moreover, the “MIC Listeria monocytogenes” value in [5] (setting [13]) came to 50 µg/mL (≈ 22.8 µM). Further, in data set [6] (setting [13]), the “MIC Escherichia coli” value stood at 150 µg/mL (≈ 68.3 µM). Besides, the “MIC Staphylococcus aureus” value in data set [7] (setting [13]) is 150 µg/mL (≈ 68.3 µM). Moreover, the “MIC Bacillus cereus” value in data set [8] (setting [13]) came out at 12.5 µg/mL (≈ 5.69 µM). Also, the “MIC Pectobacterium carotovorum” value in data set [9] (setting [13]) came out at 50 µg/mL (≈ 22.8 µM). In addition, the “MIC (µg/mL) M. luteus” value in data set [10] (setting [14]) came out at 1.25 µg/mL (≈ 0.569 µM).
Consider `CC[C@H](C)[C@H](NC(=O)[C@@H](NC(=O)[C@H](CO)NC(=O)[C@@H](N)CCCNC(=N)N)C(C)C)C(=O)N[C@@H](Cc1ccccc1)C(=O)NCC(=O)N[C@H]1CSSC[C@@H](C(=O)N[C@@H](Cc2ccccc2)C(=O)N[C@H](C(=O)NCC(=O)N[C@@H](Cc2ccccc2)C(=O)N[C@@H](CCCCN)C(=O)O)C(C)C)NC(=O)[C@H](Cc2ccccc2)NC(=O)[C@H](CCCNC(=N)N)NC(=O)[C@H](CCCNC(=N)N)NC(=O)[C@H](Cc2ccc(O)cc2)NC1=O` [HSEP3-∆TL,CL^+] (H-RSVIFGCYRRFCFVGFK-OH; disulfide 7-12), for which the “Ki (M) against bovine trypsin” value on bovine trypsin [11] is recorded as “did not show any anti-trypsin activity”. The “MIC Salmonella typhimurium” value in data set [4] (ATCC9844) is reported as more than 150 µg/mL. In addition, in [5] (ATCC13932), the “MIC Listeria monocytogenes” value is listed as more than 150 µg/mL. In [6] (ATCC11775), the “MIC Escherichia coli” value is listed as more than 150 µg/mL. For the same molecule, in data set [7] (ATCC12900), the “MIC Staphylococcus aureus” value is recorded as more than 150 µg/mL. Besides, the “MIC Bacillus cereus” value in data set [8] (ATCC11778) is listed as more than 150 µg/mL. In addition, the “MIC Pectobacterium carotovorum” value in data set [9] was more than 150 µg/mL. Also, the “MIC (µg/mL) M. luteus” value in data set [10] (ATCC4698) came to 3.125 µg/mL (≈ 1.5 µM).
As to `CC[C@H](C)[C@H](NC(=O)[C@@H](NC(=O)[C@@H](N)CO)C(C)C)C(=O)N[C@@H](Cc1ccccc1)C(=O)NCC(=O)N[C@H]1CSSC[C@@H](C(=O)N[C@@H](Cc2ccccc2)C(=O)N[C@H](C(=O)NCC(=O)N[C@@H](Cc2ccccc2)C(=O)N[C@@H](CCCCN)C(=O)O)C(C)C)NC(=O)[C@H]([C@@H](C)CC)NC(=O)[C@@H]2CCCN2C(=O)[C@@H]2CCCN2C(=O)[C@H]([C@@H](C)CC)NC(=O)[C@H](CO)NC(=O)[C@H]([C@@H](C)O)NC1=O` [HSEP2-∆K8] (H-SVIFGCTSIPPICFVGFK-OH; disulfide 6-13; N-terminus and C-terminus assumed), the “Ki (M) against bovine trypsin” value on bovine trypsin [11] (listed as HSEP2-ΔK8) is “failed to show any trypsin inhibition”. The “PI uptake fluorescence intensity of treated bacterial cells” value in the data set on B. cereus [12] was “minimal fluorescence intensity”. Moreover, the “MIC (µg/mL) M. luteus” value in data set [10] (microdilution broth (CLSI, modified), Mueller-Hinton broth, 5 × 10^5 CFU/mL, 37 °C, 7–8 h, resazurin colour change, three independent experiments in triplicates, listed as HSEP2-ΔK8) was “did not show any antibacterial activity”.
A word on the cell viability: it is a read-out of living cells in per cent, often relative to untreated cells. Turning to `CC[C@H](C)[C@H](NC(=O)[C@@H](NC(=O)[C@@H](N)CO)C(C)C)C(=O)N[C@@H](Cc1ccccc1)C(=O)NCC(=O)N[C@H]1CSSC[C@@H](C(=O)N[C@@H](Cc2ccccc2)C(=O)N[C@H](C(=O)NCC(=O)N[C@@H](Cc2ccccc2)C(=O)N[C@@H](CCCCN)C(=O)O)C(C)C)NC(=O)[C@H]([C@@H](C)CC)NC(=O)[C@@H]2CCCN2C(=O)[C@@H]2CCCN2C(=O)[C@H]([C@@H](C)CC)NC(=O)[C@H](CO)NC(=O)[C@H](CCCCN)NC(=O)[C@H]([C@@H](C)O)NC1=O` [HSEP2] (H-SVIFGCTKSIPPICFVGFK-OH; disulfide 6-14), the hemolytic activity in data set [1] is less than 5%. Besides, the cell viability with ARPE-19 cells (peptide concentration 200 µg/mL) is on record as more than 70%; with ARPE-19 cells (peptide concentration range 0–160 µg/mL, three biological replicates), more than 80%. This molecule also had a Ki on bovine trypsin [3] of 580 nM. For the same molecule, the “MIC Salmonella typhimurium” value in data set [4] (setting [13]) is more than 150 µg/mL. Moreover, the “MIC Listeria monocytogenes” value in data set [5] (setting [13]) is on record as more than 150 µg/mL. Moreover, in [6] (setting [13]), the “MIC Escherichia coli” value came to 150 µg/mL (≈ 73.5 µM). Also, the “MIC Staphylococcus aureus” value in data set [7] (setting [13]) was more than 150 µg/mL. In addition, the “MIC Bacillus cereus” value in data set [8] (setting [13]) amounted to 75 µg/mL (≈ 36.7 µM). In [9] (setting [13]), the “MIC Pectobacterium carotovorum” value came out at 150 µg/mL (≈ 73.5 µM). The “MIC (µg/mL) M. luteus” value in [10] (setting [14]) came out at 6.25 µg/mL (≈ 3.06 µM).
